Experiment in all cases: MMP microfluorometric profiling assay (fluorogenic Mca-peptide substrate)
Assay type in all cases: biochemical

Assay [1] addresses T1, MMP-9 (Homo sapiens, UniProt P14780).
T1 construct: from tissue; host or cells: human plasma buffy coat (PMNL)
The following applies: for percent inhibition: MMP-9, @ 15 (µM). The protocol: (§1) The tested MMP enzymes were prepared more specifically in the laboratories of the applicants, with the exception of MMP-1. MMP-1 from human rheumatoid synovial fibroblasts was purchased from Calbiochem-Novabiochem Corporation, LaJolla. Preparation of the recombinant catalytic domain of human Gelatinase A (cdMMP-2): The catalytic domain of Pro-Gelatinase A was prepared using an E. coli expression system according to the method described by Kröger et al^[19]. The proenzyme was activated with 0.5 mM APMA at 37°C prior to use in the assay. Preparation of the recombinant catalytic domain of human neutrophile Collagenase (cdMMP-8^Met80): The enzyme was expressed in E. coli as an active variant by the method of Kleine et al^[20]. Preparation of PMNL-Gelatinase (MMP-9): Latent PMNL-pro-Gelatinase was prepared from human plasma buffy coat as described by Tschesche et al^[21]. PMNL-pro-Gelatinase was activated prior to use by incubation with Trypsin at 37°C for 10 min. Inactivation of Trypsin was accomplished with TKI. Preparation of the recombinant catalytic domain of human Macrophage Elastase (cdMMP-12): The catalytic domain of MMP-12 was expressed in E. coli. The overexpressed protein was isolated as inclusion bodies and the renatured protein was purified by affinity chromatography with a hydroxamate inhibitor coupled column as described^[22]. Preparation of the recombinant catalytic domain of human Collagenase-3 (cdMMP-13): Human pro-cdMMP-13 was prepared using an E. coli expression system according to the method described^[23]. The isolated pro-cdMMP-13 was activated prior to use by incubation with 5 mM HgCl2 for 2 h at 37°C. Preparation of the recombinant catalytic domain of Membrane-Type-1 MMP (cdMMP-14): The catalytic domain of MMP-14 was expressed in E. coli and was activated by autocatalysis^[24]. Preparation of the recombinant human ectodomain of Membrane-Type-1 MMP (ΔTM-MMP-14): The ectodomain of MMP-14 was expressed in Pichia Pastoris by the method of Roderfeld et al. and activated by yeast proteases (Furin-like-proteases) during maturation^[25].
(§2) The enzymatic activity was measured using a modified version of a resonance energy transfer fluorogenic assay as described^[26]. Progress curves were monitored by following the increase in fluorescence at 393 nm (λex = 328 nm), induced by the cleavage of the (7-methoxycoumarin-4-yl)acetyl-Pro-Leu-Gly-Leu-(3-[2,4-dinitro-phenyl]-L-2,3-diamino-propionyl)-Ala-Arg-NH2 (Mca-Pro-Leu-Gly-Leu-Dpa-Ala-Arg-NH2) fluorogenic substrate by MMPs. The fluorescent MCA-group is quenched by resonance energy transfer to the 2,4-dinitrophenyl group. Matrix metalloproteinases cleave this substrate at the Gly-Leu bond. Cleavage results in the loss of energy transfer and a large increase in fluorescence of the MCA group. This substrate is commercially available from Bachem, Switzerland.
(§3) Enzyme inhibition assays were carried out in MRB which consisted of 50 mM HEPES/NaOH, pH 7.0, 10 mM CaCl2 and 0,02% (w/v) PEG 8000 at 25°C. MMP microfluorometric profiling assay was done in white U-bottomed 96-well plates (Microfluor 1 White, Dynex, USA) with a final substrate concentration of 6 µM MCA-peptide, approximately 0.3 to 5 nM MMP with variable inhibitor concentrations and 2% DMSO vehicle. From a 1.5 mM stock (100% DMSO) the inhibitors were serially diluted with MRB to 15, 10, 5, 3, 1, 0.6, 0.3, 0.1, 0.05, 0.01 and 0.005 µM final assay concentration. Column 1, rows A through H, contained only DMSO for the "enzyme-only" wells in the assay. After preincubation for 30 min at 25°C the reaction was started by addition of substrate and the plate was read on a SpectraFluor Plus (Tecan, Germany) plate reader with excitation at 330 nm and emission at 405 nm with the gain set to 150. Each measurement was done in triplicate to ensure statistically significant results. […]

Assay [2] has as its target cdMMP-13 (Homo sapiens, UniProt P45452). The following applies: for percent inhibition: cdMMP-13, @ 15 (µM). As for the experimental part:
as §1, §2, §3

The target in assay [3] is T2, cdMMP-12 (Homo sapiens, UniProt P39900).
T2 construct: The catalytic domain of MMP-12 was expressed in E. coli; made in house; host or cells: E. coli
T2 sequence (P39900 106-263 limits assumed): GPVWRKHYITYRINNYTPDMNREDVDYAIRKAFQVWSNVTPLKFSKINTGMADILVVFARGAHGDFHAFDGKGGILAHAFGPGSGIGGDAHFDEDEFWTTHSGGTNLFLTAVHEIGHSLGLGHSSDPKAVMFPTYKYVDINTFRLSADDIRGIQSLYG
As for the experimental part:
as §1, §2, §3

Assay [4] concerns the target T3, cdMMP-14 (Homo sapiens, UniProt P50281).
T3 construct: made in house; host or cells: E. coli
To be noted: for percent inhibition: cdMMP-14, @ 15 (µM). The protocol:
as §1, §2, §3

Assay [5] addresses T4, MMP-1 (Homo sapiens, UniProt P03956).
T4 construct: MMP-1 from human rheumatoid synovial fibroblasts was purchased; purchased Calbiochem-Novabiochem Corporation, LaJolla; host or cells: human rheumatoid synovial fibroblasts
T4 sequence (P03956 100-469): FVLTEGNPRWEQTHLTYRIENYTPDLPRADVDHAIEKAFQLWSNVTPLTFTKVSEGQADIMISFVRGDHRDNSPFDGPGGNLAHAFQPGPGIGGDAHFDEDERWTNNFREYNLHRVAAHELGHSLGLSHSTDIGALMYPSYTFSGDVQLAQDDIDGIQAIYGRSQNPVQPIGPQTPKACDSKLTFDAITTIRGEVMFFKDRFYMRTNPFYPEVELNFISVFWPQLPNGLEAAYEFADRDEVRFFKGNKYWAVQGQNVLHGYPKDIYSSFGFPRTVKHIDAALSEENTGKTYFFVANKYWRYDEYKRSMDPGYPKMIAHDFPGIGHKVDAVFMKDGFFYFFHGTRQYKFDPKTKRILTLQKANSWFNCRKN
The protocol:
as §1, §2, §3

SMILES strings stand for the structures. Counter-ions that a name gives are not always drawn. Like-named read-outs stand apart in the source and are kept apart here.

T1 sequence (P14780 107-707 limits assumed): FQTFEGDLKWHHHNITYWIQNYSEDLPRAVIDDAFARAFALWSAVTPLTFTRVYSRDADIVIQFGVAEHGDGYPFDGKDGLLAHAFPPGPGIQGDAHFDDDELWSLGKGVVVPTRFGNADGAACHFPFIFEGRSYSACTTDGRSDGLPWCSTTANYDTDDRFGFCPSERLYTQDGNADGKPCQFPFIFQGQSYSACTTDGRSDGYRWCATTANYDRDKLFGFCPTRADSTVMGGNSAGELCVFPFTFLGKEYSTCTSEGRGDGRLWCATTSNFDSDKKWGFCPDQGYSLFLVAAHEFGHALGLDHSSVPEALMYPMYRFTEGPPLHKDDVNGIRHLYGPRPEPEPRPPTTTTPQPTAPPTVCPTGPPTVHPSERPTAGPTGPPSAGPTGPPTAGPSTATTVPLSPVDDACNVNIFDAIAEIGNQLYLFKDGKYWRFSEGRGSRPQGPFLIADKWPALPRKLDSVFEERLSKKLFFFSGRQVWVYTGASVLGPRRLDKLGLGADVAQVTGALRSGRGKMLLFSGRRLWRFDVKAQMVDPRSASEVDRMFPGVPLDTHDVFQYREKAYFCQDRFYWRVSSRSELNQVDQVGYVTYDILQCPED

Regarding `CC(C)(C)c1ccc(S(=O)(=O)NCC(=O)NC2=NN=C(c3ccc(Cl)cc3Cl)CS2)cc1` [Example 18, 2-{[(4-tert-Butylphenyl)sulfonyl]amino}-N-[5-(2,4-dichlorophenyl)-6H-1,3,4-thiadiazin-2-yl]acetamide], the IC50 in assay [1] is 2.6 µM; in assay [2] (read-out: cdMMP-13 IC50), 1.41 µM; in assay [3], 0.657 µM; in assay [4], 0.78 µM; in assay [5], 0.424 µM.
In the case of `O=C(CC1NC(=O)NC1=O)NC1=NN=C(c2ccc(N3CCCC3)cc2)CS1` (stereo not drawn) [Example 26, 2-(2,5-Dioxo-4-imidazolidinyl)-N-{5-[4-(1-pyrrolidinyl)phenyl]-6H-1,3,4-thiadiazin-2-yl}acetamide], the values for the IC50 in assay [1], in assay [3] and in assay [4] were 0.517 µM, 0.217 µM and 1.1 µM, respectively. This compound also yielded a percent inhibition in assay [2] of 36%^a)@ 15.
Consider `O=C(CC1NC(=O)NC1=O)NC1=NN=C(c2ccc(C3CCCCC3)cc2)CS1` (stereo not drawn) [Example 25, N-[5-(4-Cyclohexylphenyl)-6H-1,3,4-thiadiazin-2-yl]-2-(2,5-dioxo-4-imidazolidinyl)acetamide], for which the percent inhibition was 49%^a)@ 15 in assay [1]; 67%^a)@ 15 in assay [2]; 66%^a)@ 15 in assay [4]; 67%^a)@ 15 in assay [5] (MMP-1, @ 15 (µM)). Besides, the IC50 in assay [3] was 1.42 µM.
With `O=C(CC1NC(=O)NC1=O)NC1=NN=C(c2ccc(Br)cc2)CS1` (stereo not drawn) [Example 24, N-[5-(4-Bromophenyl)-6H-1,3,4-thiadiazin-2-yl]-2-(2,5-dioxo-4-imidazolidinyl)-acetamide], the percent inhibition came out at 45%^a)@ 15 in assay [1] and 39%^a)@ 15 in assay [2]. In addition, the IC50 in assay [3] amounted to 0.297 µM; in assay [4] it was 1.07 µM.
Regarding `C[C@@H](NS(=O)(=O)c1ccccc1)C(=O)NC1=NN=C(c2ccc(C#N)cc2)CS1` [Example 1, (2R)-N-[5-(4-Cyanophenyl)-6H-1,3,4-thiadiazine-2-yl]-2-[(phenylsulfonyl)amino]-propanamide], the IC50 in assay [1] turned out to be 0.232 µM; in assay [2] (read-out: cdMMP-13 IC50), 0.368 µM; in assay [3], 0.444 µM; in assay [4], 0.346 µM; in assay [5] it was 0.451 µM.
In the case of `C[C@H](NS(=O)(=O)c1ccccc1)C(=O)NC1=NN=C(c2ccc(Cl)s2)CS1` [Example 10, (2S)-N-[5-(5-Chloro-2-thienyl)-6H-1,3,4-thiadiazin-2-yl]-2-[(phenylsulfonyl)-amino]propanamide], the IC50 in assay [1] stood at 0.722 µM; in assay [2] (read-out: cdMMP-13 IC50) it was 0.853 µM; in assay [3] it was 0.298 µM; in assay [4] it was 0.605 µM; in assay [5] it was 0.52 µM.
Turning to `COc1ccc(C2=NN=C(NC(=O)[C@H](C)NS(=O)(=O)c3ccccc3)SC2)cc1` [Example 12, (2S)-N-[5-(4-Methoxyphenyl)-6H-1,3,4-thiadiazin-2-yl]-2-[(phenylsulfonyl)-amino]propanamide], the IC50 in assay [1] turned out to be 1.4 µM; in assay [2] (read-out: cdMMP-13 IC50), 2.31 µM; in assay [3], 0.412 µM; in assay [4], 1.12 µM; in assay [5], 0.663 µM.
Turning to `C[C@H](NS(=O)(=O)c1ccccc1)C(=O)NC1=NN=C(c2ccc(C(F)(F)F)cc2)CS1` [Example 4, (2S)-2-[(Phenylsulfonyl)amino]-N-{5-[4-(trifluormethyl)phenyl]-6H-1,3,4-thiadiazin-2-yl}propanamide], the IC50 in assay [1] was 1.04 µM; in assay [2] it was 1.03 µM; in assay [3] it was 0.367 µM; in assay [4], 1.1 µM; in assay [5] it was 0.49 µM.
As to `CC(C)[C@H](NS(=O)(=O)c1ccccc1)C(=O)NC1=NN=C(c2ccc(Cl)cc2)CS1` [Example 22, (2S)-N-[5-(4-Chlorophenyl)-6H-1,3,4-thiadiazin-2-yl]-3-methyl-2-[(phenylsulfonyl)amino]butanamide], the IC50 is 0.851 µM in assay [1], > 15 µM in assay [2] (read-out: cdMMP-13 IC50), 0.463 µM in assay [3] and 1.4 µM in assay [4].
Take `COc1ccc(S(=O)(=O)NCC(=O)NC2=NN=C(c3c(F)c(F)c(F)c(F)c3F)CS2)cc1` [Example 16, 2-{[(4-Methoxyphenyl)sulfonyl]amino}-N-[5-(2,3,4,5,6-pentafluorophenyl)-6H-1,3,4-thiadiazin-2-yl]acetamide]: the IC50 in assay [1] came to 2.57 µM; in assay [2] (read-out: cdMMP-13 IC50) it was 1.09 µM; in assay [3], 0.92 µM; in assay [4], 1.76 µM.
For `COc1ccc(S(=O)(=O)NCC(=O)NC2=NN=C(c3ccc(Cl)cc3Cl)CS2)cc1` [Example 19, N-[5-(2,4-Dichlorophenyl)-6H-1,3,4-thiadiazin-2-yl]-2-{[(4-methoxyphenyl)-sulfonyl]amino}acetamide] the same measures were 0.661 µM, 0.605 µM, 0.259 µM and 0.7 µM.
On to `O=C(CC1NC(=O)NC1=O)NC1=NN=C(c2ccc(Cl)cc2)CS1` (stereo not drawn) [Example 23, N-[5-(4-Chlorophenyl)-6H-1,3,4-thiadiazin-2-yl]-2-(2,5-dioxo-4-imidazolidinyl)-acetamide], for which the percent inhibition worked out at 40%^a)@ 15 in assay [1], 34%^a)@ 15 in assay [2] and 52%^a)@ 15 in assay [4]. For the same compound, in assay [3], the IC50 stood at 0.38 µM.
With `C[C@H](NS(=O)(=O)c1ccccc1)C(=O)NC1=NN=C(c2ccc(Br)cc2)CS1` [Example 6, (2S)-N-[5-(4-Bromophenyl)-6H-1,3,4-thiadiazin-2-yl]-2-[(phenylsulfonyl)amino]-propanamide], the IC50 amounted to 0.686 µM in assay [1], 0.658 µM in assay [2], 0.533 µM in assay [3] and 0.637 µM in assay [4].
With `COc1ccc(S(=O)(=O)N[C@@H](C)C(=O)NC2=NN=C(c3ccc(C)cc3)CS2)cc1` [Example 17, (2S)-2-{[(4-Methoxyphenyl)sulfonyl]amino}-N-[5-(4-methylphenyl)-6H-1,3,4-thiadiazin-2-yl]propanamide], the IC50 in assay [1] stood at 0.689 µM; in assay [2] (read-out: cdMMP-13 IC50), 1.11 µM; in assay [3], 0.436 µM; in assay [4] it was 0.707 µM.
Consider `C=CCNC1=NN=C(c2ccc(Cl)cc2)CS1` [Example 31, N-Allyl-5-(4-chlorophenyl)-6H-1,3,4-thiadiazin-2-amine hydrobromide], for which the IC50 in assay [1] was 0.783 µM; in assay [2], > 15 µM; in assay [3], > 15 µM; in assay [4] it was 2.7 µM.

Usually IC50 stands for the concentration at which inhibition is half-maximal.

These data come from EP1191024A1, “Thiadiazines and their use as inhibitors of metalloproteinases” (Tschesche, Harald, priority 2000, dated 2002).
